How the values were obtained:
[1] = biological target: apamin-sensitive potassium channels; experiment: Binding of ^125 I-apamin to bovine cerebral membrane; details: ^125 I-apamin 30 pM, calf hippocampus membranes, 60 min on ice
Procedure: (§1) The compounds according to the invention are ligands for apamin-sensitive potassium channels. This can be shown by studying the affinity for apamine binding sites, e.g. in bovine cerebral membranes.
1) Binding of ^125 I-apamin to bovine cerebral membrane
Calf brains were obtained from the local abattoir. The hippocampus was prepared on ice and a membrane suspension was made up by homogenization twice in buffer (100 mM Tris-HCl, KCl 5 mM, pH 7.4) and centrifugation at 43,000×g. In a total volume of 500 μl, the incubation mixture contained 200 μg of membrane protein, 30 pM ^125 I-apamine and test substances in the concentration range 1×10^-9 to […]. The non-specific binding of ^125 I-apamin was determined in the presence of 1×10^-7 M unlabelled apamin.
After preincubation for 30 min at room temperature (test substances and membrane homogenate), the samples were placed on ice for 10 min before the radioligand was added. The main incubation time was 60 min on ice. When the reaction time had elapsed, an excess of ice-cooled incubation buffer was added to each sample and the mixture was filtered with suction through cellulose acetate/nitrate membrane filters. The amount of bound ^125 I-apamin was measured with a gamma counter.

[2] = system: potassium channel (PC12 cells); experiment: Non-radioactive Rb^+ efflux assay for the identification of potassium channel modulators; type: cell-based; details: 50 mM KCl stimulation, 10 min
Procedure: as §1
2) Non-radioactive Rb^+ efflux assay for the identification of potassium channel modulators
The potassium in PC12 cells is exchanged with rubidium, which is not present in the cells. This exchange is performed by incubating the cells over a period of 4 h in a physiological buffer containing 5.4 mM RbCl without KCl. This rubidium subsequently serves as a tracer for potassium.
The cells laden with Rb^+ in this way are washed three times and then stimulated by depolarization with 50 mM KCl to open potassium channels (10 min), causing Rb^+ to flow out of the cells into the supernatant according to the concentration gradient. The rubidium contents in the cell supernatant and in the residual cells after they have been lysed with 1% Triton X-100 are then determined by means of atomic absorption spectroscopy. The relative proportion of rubidium in the cell supernatant (=Rb^+ efflux) is used as a measure of the potassium channel activity.
The effect of substances on the channel activity is measured by co-incubating the test substance over the ten-minute stimulation period and determining its effect on the Rb^+ efflux in the manner described above.

Compound | Ki [1] [nM] | % inhibition of the Rb efflux at a test concentration of 10 μM [2] [%]
CCN(CC)c1nc(N2CCCN(c3nc(N(CC)CC)c4cc(Cl)ccc4n3)CC2)nc2ccc(Cl)cc12 [Example 4, 1,4-Bis-(6-chloro-4-diethylamino-2-quinazolyl)-1,4-diazacycloheptane] | 140 | –
CCN(CC)c1nc(N2CCCN(c3nc(N(CC)CC)c4ccccc4n3)CC2)nc2ccccc12 [Example 3, 1,4-Bis-(4-diethylamino-2-quinazolyl)-1,4-diazacycloheptane] | – | 63
CCN(CC)c1nc(NCC23C=CC(CC2)C2CN(c4nc(N(CC)CC)c5ccccc5n4)CC23)nc2ccccc12.Cl.Cl (stereo not shown) [Example 2, N^2-[4-(4-Diethylamino-quinazolin-2-yl)-4-aza-tricyclo[5.2.2.0^2,6]undec-8-en-1-yl-methyl]-N^4,N^4-diethyl-quinazoline-2,4-diamine dihydrochloride] | – | 72
CCN(CC)c1nc(N2CCCN(c3nc(N(CC)CC)c4ccccc4n3)CCC2)nc2ccccc12 [Example 1, 1,5-Bis-(4-diethylaminoquinazolin-2-yl)-[1,5]-diazoxane] | 340 | –
